Data published in patent US20240115654A1, “INTRAVENOUS ADMINISTRATION OF ENGINEERED ANTIMICROBIAL AMPHIPHILIC PEPTIDES” (priority 2021, published 2024).
≈ marks a conversion by molar mass, not a printed value. Like-named read-outs stand apart in the source and are kept apart here.

Tests used:
[1] = test system: Acinetobacter spp. isolates (n = 104); conditions: Acinetobacter spp. (n = 104); CLSI breakpoints
Description: (§1) Comparator antibiotics were supplied by Micromyx, and stock solutions were prepared on the first day of testing using solvents recommended by CLSI (1). Stock solutions of all compounds were made at 40× the final testing concentration and stored at −80° C. prior to testing. Information regarding compound source, catalog and lot number, testing concentrations and drug diluent for the comparators and test agent are detailed below in Table 3.
(§2) The test organisms evaluated in this study consisted of clinical isolates from the Micromyx Repository and reference isolates from the American Type Culture Collection (ATCC; Manassas, VA). The clinical isolates were obtained from USA hospitals. Upon initial receipt at Micromyx, the organisms were sub-cultured onto an appropriate agar medium. Following incubation, colonies were harvested from these plates and cell suspensions prepared and frozen at −80° C. with a cryoprotectant. Prior to testing, the isolates were streaked from frozen vials onto Trypticase Soy Agar with 5% sheep blood (Becton Dickenson [BD]; Sparks, MD; Lot Nos. 7173618, 7166759, 7208688, 72144895, 7228505 and Remel Lenexa, KS Lot No. 212574). Plates were incubated at 35° C. overnight.
(§3) Mueller Hinton II broth (MHB II; BD; Lot Nos. 6258541 and 7143896) was used for MIC testing of aerobic organisms.
(§4) MIC values were determined using a broth microdilution procedure described by CLSI (1, 3). Automated liquid handlers (Multidrop 384, Labsystems, Helsinki, Finland; Biomek 2000 and Biomek FX, Beckman Coulter, Fullerton CA) were used to conduct serial dilutions and liquid transfers.
(§5) To prepare the drug mother plates, which would provide the serial drug dilutions for the replicate daughter plates, the wells of columns 2-12 of standard 96-well microdilution plates (Costar 3795) were filled with 150 μl of the designated diluent for each row of drug. The test articles and comparator compounds (300 μl at 40× the highest concentration to be tested) were dispensed into the appropriate wells in column 1. The Biomek 2000 was then used to make 2-fold serial dilutions in the mother plates from column 1 through column 11. The wells of Column 12 contained no drug and served as the organism growth control wells for the assay.
(§6) The daughter plates were loaded with 185 μL per well of MHB II using the Multidrop 384. The daughter plates were completed on the Biomek FX instrument which transferred 5 μL of drug solution from each well of a mother plate to the corresponding well of each daughter plate in a single step. A standardized inoculum of each test organism was prepared per CLSI methods (1). The inoculum for each organism was dispensed into sterile reservoirs divided by length (Beckman Coulter), and the Biomek 2000 was used to inoculate the plates. Daughter plates were placed on the Biomek 2000 work surface in reverse orientation so that inoculation took place from low to high drug concentration.
(§7) Plates were stacked 3-4 high, covered with a lid on the top plate, placed in plastic bags, and incubated at 35° C. for 16 to 20 hrs. Following incubation, the microplates were removed from the incubator and viewed from the bottom using a plate viewer. […] The MIC was read and recorded as the lowest concentration of drug that inhibited visible growth of the organism.
(§8) Clinical breakpoints to determine percent resistance within a given organism group were obtained from CLSI (3), with the exception of colistin for K. pneumoniae, Enterobacter spp., and E. coli, which are only available from EUCAST.

[2] = test system: Escherichia coli isolates (n = 101); conditions: Escherichia coli (n = 101); CLSI breakpoints, colistin EUCAST
Description: as §1, §2, §3, §4, §5, §6, §7, §8

[3] = test system: Klebsiella pneumoniae isolates (n = 101); conditions: Klebsiella pneumoniae (n = 101); CLSI breakpoints, colistin EUCAST
Description: as §1, §2, §3, §4, §5, §6, §7, §8

[4] = test system: Pseudomonas aeruginosa isolates (n = 109); conditions: Pseudomonas aeruginosa (n = 109), CLSI breakpoints
Description: as §1, §2, §3, §4, §5, §6, §7, §8

[5] = test system: Enterobacter spp. isolates (Enterobacter aerogenes and E. cloacae, n = 102); experiment: organism not typed
Description: as §1, §2, §3, §4, §5, §6, §7, §8

[6] = test system: Staphylococcus aureus ATCC 29213 (MSSA; QC); conditions: S. aureus ATCC 29213; established CLSI QC range; cited from earlier work
[7] = test system: Streptococcus pneumoniae ATCC 49619 (QC); conditions: S. pneumoniae ATCC 49619; established CLSI QC range; cited from earlier work
[8] = test system: Enterococcus faecalis ATCC 29212 (VSE; QC); conditions: E. faecalis ATCC 29212; established CLSI QC range; cited from earlier work
[9] = test system: Escherichia coli ATCC 25922 (QC); conditions: E. coli ATCC 25922; established CLSI QC range; cited from earlier work
[10] = test system: Pseudomonas aeruginosa ATCC 27853 (non-MDR; QC); conditions: P. aeruginosa ATCC 27853; established CLSI QC range; cited from earlier work
S. aureus = experiment: Periprosthetic joint infection model, implant biofilm CFU; format: in vivo; conditions: mouse, intraperitoneal; SEQ ID NO:1 0.1-10 mg/kg; compared to untreated control mice, FIG. 16
Description: Periprosthetic joint infection was modeled in a mouse by placing an intra-articular K-wire through the medullary canal of the proximal femur followed by intra-articular inoculation with S. aureus. Animals were treated systemically with an intraperitoneal delivery of cefazolin, rifampin, or the exemplary peptide of SEQ ID NO: 1. Intraperitoneal delivery was chosen due to technical difficulties associated with intravenous delivery. Implant sonication and proximal femur homogenate were used to quantify viable bacteria.

[11] = test system: P. aeruginosa strains (PAO1 and 2 clinical isolates); experiment: Determination of bacterial resistance, passage at 0.5×MIC with daily MIC; format: cell-based, Pseudomonas aeruginosa; conditions: three P. aeruginosa strains, exposure at 0.5×MIC, FIG. 20
Excerpt: Each antibiotic was compared for their propensity to select for bacterial resistance phenotypes in vitro.

Row | SMILES | % R (percent of isolates resistant) [1] | % R (percent of isolates resistant) [2] | % R (percent of isolates resistant) [3] | % R (percent of isolates resistant) [4] | % R (percent of isolates resistant) ([4]; listed as meropenem) | MIC50 [5] | MIC90 [5] | % R (percent of isolates resistant) ([5]; Enterobacter spp. (n = 102), CLSI breakpoints, colistin EUCAST) | MIC ([5]; read-out: Mode (MIC)) | MIC QC range (in parentheses under the MIC) [6] | MIC QC range (in parentheses under the MIC) [7] | MIC QC range (in parentheses under the MIC) [8] | MIC QC range (in parentheses under the MIC) [9] | MIC QC range (in parentheses under the MIC) [10] | reduction of implant biofilm CFU burden (sonicate culture) (S. aureus) | time to development of resistance (fold MIC >10) [11]
1 | C[C@@H](O)[C@H]1C(=O)N2C(C(=O)O)=C(S[C@@H]3CN[C@H](C(=O)N(C)C)C3)[C@H](C)[C@H]12 [Meropenem] | 65.4% | 1% | 50.5% | 20.2% | 20% | 0.03 µg/mL (≈ 0.0782 µM) | 0.12 µg/mL (≈ 0.313 µM) | 3.9% | 0.03 µg/mL (≈ 0.0782 µM) | (0.03-0.12) μg/mL | (0.03-0.25) μg/mL | (2-8) μg/mL | (0.008-0.06) μg/mL | (0.12-1) μg/mL |  | 
2 | CO[C@H]1/C=C/O[C@@]2(C)Oc3c(C)c(O)c4c(O)c(c(/C=N/N5CCN(C)CC5)c(O)c4c3C2=O)NC(=O)/C(C)=C\C=C\[C@H](C)[C@H](O)[C@@H](C)[C@@H](O)[C@@H](C)[C@H](OC(C)=O)[C@@H]1C [Rifampin] |  |  |  |  |  |  |  |  |  |  |  |  |  |  | comparable reduction in biofilms sonicate as compared to SEQ ID NO:1 | ≤ 3 days
